Converted amounts (≈) assume the structure as drawn.

This assay relates to Mycobacterium tuberculosis. The assay is described as follows: Antimycobacterial activity against Mycobacterium tuberculosis H37Rv ATCC 27294 by radiorespirometric bioassay. The class given is functional.
The term MIC denotes the least concentration at which growth counts as inhibited. Higher therefore signals a need for much substance. `CC(C)=CCC[C@H]1C(=O)O[C@H]2C[C@]3(C)C4=CC[C@H]5C(C)(C)C(=O)CC[C@]5(C)[C@H]4C[C@@H](O)[C@@]3(C)[C@@H]21` returned an MIC of 16 µg/mL (≈ 34.1 µM).

As to `CC(C)=CCC[C@H]1C(=O)O[C@H]2C[C@]3(C)C4=C[C@@H](O)[C@H]5C(C)(C)C(=O)CC[C@]5(C)[C@H]4CC[C@@]3(C)[C@@H]21`, the lowest concentration to inhibit growth (MIC) was 4 µg/mL (≈ 8.53 µM). In turn, `CC(=O)[C@H](CCC=C(C)C)[C@@H]1[C@@H](O)C[C@]2(C)C3=CC[C@H]4C(C)(C)C(=O)CC[C@]4(C)[C@H]3CC[C@@]12C` [KULONATE] yielded an MIC of 16 µg/mL (≈ 34.1 µM). This MIC lies about 4-fold higher than the previous one.
